Results from patent US20240100120A1 (priority 2019, published 2024).
Where a SMILES comes first, the peptide text is derived from it. Bridges are numbered along the chain shown (N, C = ends). [ ]: non-standard residue; d: D form. Orn = NCCC[C@H](N)C(=O)O; Mpa = O=C(O)CCS

Experiments:
[1] = test system: fentanyl OIRD (integrated phrenic nerve activity, iPNA); conditions: rat, in vivo, iv
[2] = test system: integrated phrenic nerve activity (iPNA); opioid OIRD; conditions: rat, in vivo
[3] = test system: side effects (e.g., respiratory depression) of opioid receptor agonists; conditions: oxytocin 0.32 mg/kg subcutaneously; heroin 0.1-1.0 mg/kg; rhesus monkeys
[4] = test system: opioid self-administration; conditions: Kovacs G L, et al. Life Sci. 1985; cited from earlier work
[5] = test system: hypopnea and apnea; conditions: human sleep apnea patients; cited from earlier work

CCOc1ccc(C[C@H]2NC(=O)CCSSC[C@@H](C(=O)N3CCC[C@H]3C(=O)N[C@@H](CCCN)C(=O)NCC(N)=O)NC(=O)[C@H](CC(N)=O)NC(=O)[C@H]([C@@H](C)O)NC(=O)[C@H]([C@@H](C)CC)NC2=O)cc1 [atosiban] ([Mpa][dY](Et)ITNCP[Orn]G-NH2; disulfide 1-6)
effect of OXTN receptor antagonism on OXTN reversal of FENT OIRD [1]: prevents OXTN (5 μg/kg) reversal of FENT OIRD

(Phenylacl-D-Tyr(Et)2,Lys6,Arg8,des-Gly9)-vasopressin trifluoroacetate [V1aRX]
effect of V1aR antagonism on OXTN reversal of OIRD [1]: significantly enhances reversal | effect of V1aR antagonism on high dose OXTN reversal of OIRD [1]: efficacy is restored

CC[C@H](C)[C@@H]1NC(=O)[C@H](Cc2ccc(O)cc2)NC(=O)[C@@H](N)CSSC[C@@H](C(=O)N2CCC[C@H]2C(=O)N[C@@H](CC(C)C)C(=O)NCC(N)=O)NC(=O)[C@H](CC(N)=O)NC(=O)[C@H](CCC(N)=O)NC1=O [oxytocin]
reduction of OIRD by OXT delivered into the PVN [2]: does not reduce OIRD | reversal of side effects (e.g., respiratory depression) of opioid receptor agonists [3]: reversed | opioid self-administration [4]: reduces opioid self-administration | frequency of hypopnea, apnea and hypopnea duration and related arousal [5]: improved
